{"source": "patent US20250236596A1", "about": "“HYDROXYLAMINE-BASED EGFR INHIBITORS FOR TREATMENT OF CANCER WITH BRAIN METASTASES” (University of Georgia Research Foundation, Inc., priority 2022, published 2025)", "key": {"HER2": {"molecular_target": "T1, HER2 (Homo sapiens, UniProt P04626)", "T1 construct": "purchased Eurofins DiscoverX (contract assay, KINOMEScan KdELECT)", "T1 sequence (P04626 23-1255)": "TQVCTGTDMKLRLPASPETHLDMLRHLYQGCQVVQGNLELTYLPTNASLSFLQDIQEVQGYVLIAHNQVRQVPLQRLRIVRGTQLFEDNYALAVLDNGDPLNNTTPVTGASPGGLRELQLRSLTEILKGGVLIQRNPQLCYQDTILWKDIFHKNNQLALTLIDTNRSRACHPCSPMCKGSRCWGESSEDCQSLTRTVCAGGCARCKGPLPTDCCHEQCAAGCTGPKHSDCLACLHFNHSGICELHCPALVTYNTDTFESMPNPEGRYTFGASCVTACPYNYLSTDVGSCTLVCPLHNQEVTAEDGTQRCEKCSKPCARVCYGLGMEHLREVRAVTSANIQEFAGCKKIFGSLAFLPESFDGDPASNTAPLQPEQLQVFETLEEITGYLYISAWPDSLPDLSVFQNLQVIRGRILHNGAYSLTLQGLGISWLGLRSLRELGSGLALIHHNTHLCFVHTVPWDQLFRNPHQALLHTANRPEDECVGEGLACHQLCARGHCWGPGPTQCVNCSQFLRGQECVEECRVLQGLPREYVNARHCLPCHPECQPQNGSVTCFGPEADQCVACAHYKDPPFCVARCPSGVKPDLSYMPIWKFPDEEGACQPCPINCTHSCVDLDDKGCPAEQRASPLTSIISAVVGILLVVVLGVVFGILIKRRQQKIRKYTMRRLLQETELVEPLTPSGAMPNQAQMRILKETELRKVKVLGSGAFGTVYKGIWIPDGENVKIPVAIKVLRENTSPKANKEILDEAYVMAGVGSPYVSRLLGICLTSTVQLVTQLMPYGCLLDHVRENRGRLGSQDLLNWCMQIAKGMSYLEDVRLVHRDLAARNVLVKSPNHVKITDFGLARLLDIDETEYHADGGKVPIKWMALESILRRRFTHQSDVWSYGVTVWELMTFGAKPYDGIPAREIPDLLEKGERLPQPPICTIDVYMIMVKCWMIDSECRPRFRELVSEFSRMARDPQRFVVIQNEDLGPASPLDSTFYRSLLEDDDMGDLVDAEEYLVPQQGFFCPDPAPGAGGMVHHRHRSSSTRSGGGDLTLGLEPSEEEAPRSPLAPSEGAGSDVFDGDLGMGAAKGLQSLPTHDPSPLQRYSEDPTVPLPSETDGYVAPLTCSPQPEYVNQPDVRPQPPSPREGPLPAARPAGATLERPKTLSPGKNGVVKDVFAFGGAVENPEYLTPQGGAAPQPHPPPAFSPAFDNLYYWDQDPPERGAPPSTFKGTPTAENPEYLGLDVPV", "experiment": "Follow-up KdELECT binding, HER2", "description": "In vitro kinase activity (inhibitor binding constants (Kd) and biochemical inhibition (IC50's)) were assessed by Eurofins DiscoverX (Kd determinations) and Eurofins Cerep (biochemical IC50 determinations)."}, "[1]": {"experiment": "Metabolic stability in liver microsomes", "type": "in vitro ADME", "details": "human and rat / multiple species; result in words", "description": "(§1) Assessment of the compounds metabolic stability in incubations containing liver microsomes and hepatocytes of human and rat using the compound depletion approach was performed by Pharmaron Inc. Compound 15 underwent additional stability evaluation in monkey and dog hepatocytes. Microsome stability was assessed in duplicate (n=2) in the presence and absence of NADPH with liver microsomes (0.5 mg/mL) from human (BD Gentest) and SD rat (BD Gentest). Compounds were incubated in liver microsomes at 1 μM and samples (30 μL) were taken at 0.5, 15, 30, 45 and 60 min time points for analysis by LC-MS/MS. Hepatocyte stability was assessed in duplicate (n=2) at a working cell density of 0.5×10^6 cells/mL with hepatocytes from human (BioIVT), SD rat (BioIVT), cynomolgous monkey (RILD) or beagle dog (BioIVT). Compounds were incubated in hepatocytes at 1 μM and samples (25 μL) were taken at 0.5, 15, 30, 60, 90 and 120 min time points for analysis by LC-MS/MS. The in vitro half-life and intrinsic clearances were determined as previously described.^19\n(§2) In vitro half-life (in vitro t1/2) was determined from the slope value in: in vitro t1/2=−(0.693/k).\n(§3) Where, k, was determined by linear regression of the natural logarithm of the remaining percentage of the parent drug vs incubation time curve."}, "[2]": {"tested_on": "468-member human kinase panel", "experiment": "KINOMEScan kinase selectivity panel, S score", "type": "binding", "details": "1 μM; 6/403 nonmutant kinases", "text": "Percent control was mapped onto the kinome tree using TREEspot™."}, "MDCKII-MDR1 cells": {"tested_on": "MDCKII-MDR1 cells", "experiment": "MDCKII-MDR1 cell permeability assay", "type": "in vitro ADME, canine", "details": "result in words", "description": "(§4) Compounds were evaluated at Pharmaron Inc. for their ability to permeate Caco-2 cells and MDCKII-MDR1 cells. A 96-well HTS Transwell plate (Corning) was used for the Caco-2 and MDCKII-MDR1 cell seeding. Caco-2 cells were seeded at a density of 6.86×10^5 cells/mL and cultivated for 14-18 days prior to assays. MDCKII-MDR1 cells were seeded at a density of 1.56×10^6 cells/mL and cultivated for 4-8 days prior to assays. To determine the rate of drug transport in both the absorptive (apical to basolateral (A-B)) and secretory (basolateral to apical (B-A)) directions, compounds (5 μM in DMSO for Caco-2 cells, and 1 μM in DMSO for MDCKII-MDR1 cells) were added to the donor wells. Plates were incubated at 37° C. for 2 h and samples (50 μL) were taken at the beginning and end of the incubation in both the donor and acceptor wells with the assay run in duplicate (n=2). Samples were analyzed by LC-MS/MS. The apparent permeability coefficient (Papp) in units (cm/s×10^−6) was calculated using the following equation.\n(§5) where, VA represents the volume (mL) in the acceptor well. Area is the surface of the membrane (0.143 cm^2 for Transwell-96 well plate) and time is the total transport time in sec.\n(§6) The efflux ratio was determined using the following equation: Efflux ratio=Papp (B-A)/Papp(A-B)\n(§7) Where, Papp (B-A) indicates the apparent permeability in the basolateral to apical direction, and Papp (A-B) indicates the apparent permeability in the apical to basolateral direction."}, "Caco-2 cells": {"tested_on": "Caco-2 cells", "experiment": "Caco-2 cell permeability assay", "type": "in vitro ADME", "details": "result in words", "description": "as §4, §5, §6, §7"}, "CYP2C9": {"molecular_target": "CYP2C9 (Homo sapiens, UniProt P11712)", "sequence (P11712 whole entry, canonical isoform)": "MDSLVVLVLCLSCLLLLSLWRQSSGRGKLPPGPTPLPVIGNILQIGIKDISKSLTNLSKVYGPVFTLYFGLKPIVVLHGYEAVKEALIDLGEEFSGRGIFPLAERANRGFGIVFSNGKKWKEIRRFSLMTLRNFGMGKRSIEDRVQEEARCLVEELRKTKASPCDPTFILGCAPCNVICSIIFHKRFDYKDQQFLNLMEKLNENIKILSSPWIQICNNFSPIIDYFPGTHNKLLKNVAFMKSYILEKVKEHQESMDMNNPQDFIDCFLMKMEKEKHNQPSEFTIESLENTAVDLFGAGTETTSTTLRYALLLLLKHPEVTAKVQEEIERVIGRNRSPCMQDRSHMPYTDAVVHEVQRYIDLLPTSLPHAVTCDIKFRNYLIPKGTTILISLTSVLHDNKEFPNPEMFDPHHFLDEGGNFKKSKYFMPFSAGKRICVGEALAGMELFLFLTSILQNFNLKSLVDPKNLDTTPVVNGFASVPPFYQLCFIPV", "experiment": "Human CYP450 inhibition in human liver microsomes, CYP2C9", "type": "in vitro ADME", "details": "pooled human liver microsomes, probe diclofenac (6 μM), 4′-hydroxylation", "description": "(§8) Assessment of compound 15 was carried out at Pharmaron Inc. for its potential to inhibit cytochrome P450 (CYP) isoforms using human liver microsomes. The activities tested were CYP1A2-mediated phenacetin O-demethylation, CYP2C19-mediated (S)-mephenytoin 4′-hydroxylation, CYP2C9-mediated diclofenac 4′-hydroxylation, CYP2D6-mediated dextromethorphan O-demethylation and CYP3A4-mediated midazolam 1′-hydroxylation. Concentrations of substrates were phenacetin (40 μM), mephenytoin (50 μM), diclofenac (6 μM), dextromethorphan (2 μM) and midazolam (1 μM). Probe substrates phenacetin, mephenytoin and dextromethorphan were incubated at 37° for 20 min. Probe substrates diclofenac and midazolam were incubated at 37° for 5 min. […] The reactions were initiated by adding NADPH (1 mM final concentration) after a 5 min-preincubation and the assay was ran in duplicate (n=2). Samples were analyzed by UPLC-MS/MS."}, "CYP2C19": {"molecular_target": "CYP2C19 (Homo sapiens, UniProt P33261)", "sequence (P33261 whole entry)": "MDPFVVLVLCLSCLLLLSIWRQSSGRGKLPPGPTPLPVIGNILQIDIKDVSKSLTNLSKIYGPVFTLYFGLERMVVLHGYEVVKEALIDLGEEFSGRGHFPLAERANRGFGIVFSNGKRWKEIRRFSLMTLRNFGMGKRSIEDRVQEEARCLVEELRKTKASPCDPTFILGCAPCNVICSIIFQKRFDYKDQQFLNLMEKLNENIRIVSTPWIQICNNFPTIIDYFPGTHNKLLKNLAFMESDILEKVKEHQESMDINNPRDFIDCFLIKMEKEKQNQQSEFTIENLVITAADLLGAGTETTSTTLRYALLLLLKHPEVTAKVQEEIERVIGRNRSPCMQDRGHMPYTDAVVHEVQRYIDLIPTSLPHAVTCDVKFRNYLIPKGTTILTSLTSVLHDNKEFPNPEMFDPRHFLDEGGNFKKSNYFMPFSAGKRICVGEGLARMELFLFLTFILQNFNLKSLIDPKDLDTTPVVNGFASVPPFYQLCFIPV", "experiment": "Human CYP450 inhibition in human liver microsomes, CYP2C19", "type": "in vitro ADME", "details": "pooled human liver microsomes, probe (S)-mephenytoin (50 μM), 4′-hydroxylation", "description": "as §8"}, "[3]": {"experiment": "Solubility in PBS at pH 7.4", "type": "physicochemical", "details": "compared to both 1 and 6; result in words", "description": "Solubility was determined by Pharmaron Inc. and each compound was assessed in duplicate (n=2) by adding 15 μL of compound stock solution (10 mM in DMSO) into a 96-well plate along with 485 μL of buffer followed by shaking at 25° C., 1,100 rpm for 2 h. Wells were filtered and samples (5 μL) were taken followed by dilution with an equal volume of DMSO (5 μL) and 490 μL of aqueous solution. Samples were analyzed by LC-MS/MS."}, "[4]": {"experiment": "Metabolic stability in hepatocytes", "type": "in vitro ADME", "details": "human and rat; result in words", "description": "as §1, §2, §3"}}, "data": [{"compound": "COc1cc2ncnc(Nc3cccc(Cl)c3F)c2cc1OCCON1CCN(C)CC1", "note": "[Compound 15, N-(3-chloro-2-fluorophenyl)-7-methoxy-6-(2-((4-methylpiperazin-1-yl)oxy)ethoxy)quinazolin-4-amine]", "values": [{"measurement": "Kd", "setting": "HER2", "value": 0.021, "unit": "µM"}, {"measurement": "stability in liver microsomes", "setting": "[1]", "value": "good stability"}, {"measurement": "S(10) score", "setting": "[2]", "value": 0.015}, {"measurement": "efflux", "setting": "MDCKII-MDR1 cells", "value": "low efflux"}, {"measurement": "permeability", "setting": "MDCKII-MDR1 cells", "value": "excellent permeability"}, {"measurement": "efflux", "setting": "Caco-2 cells", "value": "reduced efflux ratios"}, {"measurement": "permeability", "setting": "Caco-2 cells", "value": "remarkably enhanced permeability"}, {"measurement": "IC50 at 5 min", "setting": "CYP2C9", "value": "> 30", "unit": "µM"}, {"measurement": "IC50 at 20 min", "setting": "CYP2C19", "value": "> 30", "unit": "µM"}, {"measurement": "aqueous solubility", "setting": "[3]", "value": "markedly improved aqueous solubility"}, {"measurement": "stability in hepatocytes", "setting": "[4]", "value": "good stability"}]}]}
